Source: patent publication US20230287051A1, “INHIBITORS OF COMPLEMENT FACTOR C3 AND THEIR MEDICAL USES” (ZP SPV 3 K/S, priority 2020, published 2023)
Numbered stars: 1 amine (or outer) side, 2 acyl side, 3 side chain; on linkers, the order of the positions; unused ones are H or OH. Bridge positions count the residues as written; N and C are the ends. Square brackets hold non-standard residues; d marks the D form. Side chains are listed from the residue outwards. Peptide text beside a SMILES is read from it. * marks the point of attachment. Trp(1-Me) = Cn1cc(C[C@H](N)C(=O)O)c2ccccc21; C18 diacid = O=C(O)CCCCCCCCCCCCCCCCC(=O)*; γGlu = O=C(O)[C@H](CCC(=O)[*:2])N[*:1]; AEEA = NCCOCCOCC(=O)O; CH2 = C([*:1])[*:2]; Sar = CNCC(=O)O

Tests used:
[1] = target: T1, Human C3 (Homo sapiens, UniProt P01024); assay: Affinity measurement by surface plasmon resonance with immobilized C3; settings: SPR, immobilized human C3, 25° C., 1:1 Langmuir binding model, n=>2
T1 construct: purchased Complement tech A113c
Method: Surface plasmon resonance (SPR) was used to characterize peptides with respect to their binding affinity (Kd) for C3.
For interaction experiments, a multi-cycle experiment approach was used and performed using a BiacoreX100™ instrument (GE Healthcare) at 25° C. Peptides were injected in increasing concentration series (5 different concentrations and buffer reference) for 180 seconds at a flow rate of 30 μL/min in a buffer consisting of 50 mM Tris buffer at pH 7.4, with 150 mM NaCl and 0.05% Tween20. This was followed by a dissociation period for 10 min. The C3 surface was regenerated between runs by two consecutive injections of 3 M MgCl2 each for 45 seconds.
Sensorgrams were double-referenced (reference surface, blanks) prior to analysis of the kinetic profiles by globally fitting data to a 1:1 Langmuir binding model to obtain association and dissociation rates for calculation of the equilibrium dissociation constant Kd (Table 3). Each peptide was tested at in at least 2 independent experiments.

[2] = system: classical complement pathway; assay: In vitro haemolysis assay (inhibition of classical complement pathway); format: cell-based; settings: human serum, sensitized sheep RBC, 30 minutes at 37° C., absorbance at 405 nm, n=>2; read-out: IC50, inhibition of hemolysis
Method in brief: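 Compounds in 9-point serial dilution in Tris/casein buffer pH 7.4 (Ca2+/Mg2+) preincubated 15 min at room temperature with diluted human serum (dilution giving 70-90% maximal haemolysis), then antibody-sensitized sheep RBCs added, 30 min at 37° C. EDTA stop; supernatant haemoglobin read at 405 nm. IC50 from 4PL fit, normalized to controls, n≥2.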

Row | Structure (SMILES) | Kd [1] [µM] | IC50 [2] [µM]
1 | CC[C@H](C)[C@@H]1NC(=O)[C@@H](NC(=O)[C@H](Cc2ccccc2)NC(=O)[C@H](C)NC(=O)[C@H](CO)NC(=O)[C@H](CCC(N)=O)NC(=O)CNC(C)=O)CSCSC[C@@H](C(=O)N[C@H](C(=O)N[C@@H](CCC(=O)O)C(=O)NCC(=O)N[C@@H](CCC(=O)O)C(=O)NCCOCCOCC(=O)NCCOCCOCC(=O)N[C@@H](CCCCNC(=O)CC[C@H](NC(=O)CNC(=O)CC[C@H](NC(=O)CCCCCCCCCCCCCCCCC(=O)O)C(=O)O)C(=O)O)C(N)=O)[C@@H](C)O)NC(=O)[C@H](CCCNC(=N)N)NC(=O)[C@H](Cc2c[nH]cn2)NC(=O)[C@H](CCC(=O)O)NC(=O)CN(C)C(=O)[C@H](Cc2c[nH]c3ccccc23)NC(=O)[C@H](CC(=O)O)NC(=O)[C@H](CCC(N)=O)NC(=O)[C@H](Cc2cn(C)c3ccccc23)NC1=O [Compound 28, Ac-GQSAF[C(1)]I[1-Me-Trp]QDW[Sar]EHR[C(1)]TEGE[Peg3][Peg3]-K([17-Carboxy-heptadecanoyl][yGlu]G[yGlu])-NH2] (Ac-GQSAFCI[Trp(1-Me)]QDW[Sar]EHRCTEGE[AEEA][AEEA]K([γGlu-Gly-γGlu-C18 diacid])-NH2; linker 6-16 via CH2) | 0.015 | < 0.1
2 | CC[C@H](C)[C@@H]1NC(=O)[C@@H](NC(=O)[C@H](Cc2ccccc2)NC(=O)CNC(=O)[C@H](CO)NC(=O)[C@H](CCC(=O)O)NC(=O)CNC(=O)[C@H](CCC(=O)O)NC(C)=O)CSCSC[C@@H](C(=O)N[C@H](C(=O)N[C@@H](CCC(=O)O)C(=O)NCC(=O)N[C@@H](CCC(=O)O)C(=O)NCCOCCOCC(=O)NCCOCCOCC(=O)N[C@@H](CCCCNC(=O)CC[C@H](NC(=O)CNC(=O)CC[C@H](NC(=O)CCCCCCCCCCCCCCCCC(=O)O)C(=O)O)C(=O)O)C(N)=O)[C@@H](C)O)NC(=O)[C@H](CCCNC(=N)N)NC(=O)[C@H](Cc2c[nH]cn2)NC(=O)[C@H](CCC(=O)O)NC(=O)CN(C)C(=O)[C@H](Cc2c[nH]c3ccccc23)NC(=O)[C@H](CC(=O)O)NC(=O)[C@H](CCC(N)=O)NC(=O)[C@H](Cc2cn(C)c3ccccc23)NC1=O [Compound 27, Ac-EGESGF[C(1)]I[1-Me-Trp]QDW[Sar]EHR[C(1)]TEGE[Peg3][Peg3]-K([17-Carboxy-heptadecanoyl][yGlu]G[yGlu])-NH2] (Ac-EGESGFCI[Trp(1-Me)]QDW[Sar]EHRCTEGE[AEEA][AEEA]K([γGlu-Gly-γGlu-C18 diacid])-NH2; linker 7-17 via CH2) | 0.017 | < 0.1
